The values below come from patent US7553861B2, “Dipeptidyl peptidase-IV inhibitors” (Alantos Pharmaceuticals Holding, Inc., priority 2005, dated 2009).

Molecules are shown by their SMILES. Where only a bound is given, the exact number is not on record here.

For the test, the target named is T1, DPP-IV (Homo sapiens, UniProt P27487).
T1 construct: purchased R&D Systems GmbH, Germany
In words: Assay for determining DP-IV inhibition (fluorometric, Gly-Pro-AMC substrate). Type of test: biochemical. Particulars: Inhibition of DPP-IV, K(i) calculated from IC(50) with IC(50)=K(i)(1+[S]/Km), pH 8.0. On the procedure: The inhibitory activity of compounds against DPP-IV can be determined by in vitro assay systems, which are themselves well established in the art. The assay results given in Table 5 were obtained according to the following method, employing a modified version of the assay described by Leiting et al., in an article entitled “Catalytic properties and inhibition of proline-specific dipeptidyl peptidases II, IV and VII” in Biochem. J. Vol. 371, pages 525-532 (2003):
DPP-IV activity was determined fluorometrically with Gly-Pro-AMC (where AMC stands for 7-amido-4-methylcoumarin, Bachem AG, Switzerland) as substrate. The reaction mixture contained 10 μl of 1 ng/μl DPP-IV (R&D Systems GmbH, Germany) and 80 μl of 25 mM Tris/HCl buffer, pH 8.0. Compounds were supplied as DMSO stock solutions and diluted in assay buffer to a maximal DMSO concentration of 1% in the assay. Prior to start of the reaction, the mixture was incubated for 30 min at room temperature. The reaction was started by addition of 10 μl of 100 μM substrate solution.
The fluorescence intensity was measured at excitation and emission wavelengths of 355 and 460 nm, respectively, in a FluoStar Galaxy Multiwell Plate (BMG Labtech, Germany). Fluorescence was determined 3 and 4 minutes after start of reaction and increase in fluorescence was used for determination of enzymatic activity. IC(50) values of tested compounds were determined via plotting enzymatic activity versus concentration of test compound and determining the concentration of test compound which yields a 50% inhibition of enzymatic activity.
K(i) values were calculated using the Michaelis-Menten equation for competitive inhibition: IC(50)=K(i)(1+[S]/Km)

T1 sequence (P27487 whole entry): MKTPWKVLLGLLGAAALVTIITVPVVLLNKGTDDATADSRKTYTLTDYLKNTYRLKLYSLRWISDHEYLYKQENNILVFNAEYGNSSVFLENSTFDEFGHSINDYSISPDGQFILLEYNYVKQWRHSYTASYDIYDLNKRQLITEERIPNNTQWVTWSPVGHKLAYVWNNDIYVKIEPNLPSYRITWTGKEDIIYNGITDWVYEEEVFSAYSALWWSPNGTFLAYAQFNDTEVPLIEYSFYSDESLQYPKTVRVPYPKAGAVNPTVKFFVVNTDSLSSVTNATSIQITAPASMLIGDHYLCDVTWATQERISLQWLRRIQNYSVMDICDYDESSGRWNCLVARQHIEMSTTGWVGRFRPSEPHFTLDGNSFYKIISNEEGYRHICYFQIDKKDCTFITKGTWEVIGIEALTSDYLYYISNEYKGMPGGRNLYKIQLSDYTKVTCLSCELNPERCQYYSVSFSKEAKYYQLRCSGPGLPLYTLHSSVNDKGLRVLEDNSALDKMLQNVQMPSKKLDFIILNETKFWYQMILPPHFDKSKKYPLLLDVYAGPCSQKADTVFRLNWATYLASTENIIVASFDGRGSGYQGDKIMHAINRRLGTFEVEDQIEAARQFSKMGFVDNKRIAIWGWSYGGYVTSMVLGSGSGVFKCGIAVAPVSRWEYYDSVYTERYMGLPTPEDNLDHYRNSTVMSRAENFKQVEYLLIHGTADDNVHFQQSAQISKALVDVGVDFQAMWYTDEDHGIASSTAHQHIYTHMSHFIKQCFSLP

As usually defined, the Ki is the dissociation constant of the complex between target and ligand, obtained from inhibition or displacement. For the molecule `N#C[C@@H]1CCCN1C(=O)[C@@H](N)CN1C(=O)[C@@H]2C[C@H]1CN2S(=O)(=O)c1cccc(F)c1` [Example 65], the Ki was 0.006 to 0.05 µM.

As to `N#C[C@@H]1CCCN1C(=O)[C@@H](N)CN1C(=O)[C@@H]2C[C@H]1CN2S(=O)(=O)c1cccs1` [Example 66], the Ki is 0.006 to 0.05 µM.

On to `N#C[C@@H]1CCCN1C(=O)[C@@H](N)CN1C(=O)[C@@H]2C[C@H]1CN2S(=O)(=O)c1ccsc1` [Example 67], for which the Ki is below 0.006 µM.

For `COC(=O)c1sccc1S(=O)(=O)N1C[C@@H]2C[C@H]1C(=O)N2C[C@H](N)C(=O)N1CCC[C@H]1C#N` [Example 68], the Ki was 0.006 to 0.05 µM.

As for `N#C[C@@H]1CCCN1C(=O)[C@@H](N)CN1C(=O)[C@@H]2C[C@H]1CN2C(=O)c1cccs1` [Example 69], the Ki was 0.006 to 0.05 µM.

Consider `N#C[C@@H]1CCCN1C(=O)[C@@H](N)CN1C(=O)[C@@H]2C[C@H]1CN2C(=O)Cc1cccs1` [Example 70], for which the Ki was 0.006 to 0.05 µM.

In the case of `N#C[C@@H]1CCCN1C(=O)[C@@H](N)CN1C(=O)[C@@H]2C[C@H]1CN2C(=O)c1cnccn1` [Example 71], the Ki is 0.006 to 0.05 µM.

Take `N#C[C@@H]1CCCN1C(=O)[C@@H](N)CN1C(=O)[C@@H]2C[C@H]1CN2C(=O)CC1c2ccccc2C=Cc2ccccc21` [Example 72]: the Ki was below 0.006 µM.

Regarding `N#C[C@@H]1CCCN1C(=O)[C@@H](N)CN1C(=O)[C@@H]2C[C@H]1CN2C(=O)OCC1c2ccccc2-c2ccccc21` [Example 73], the Ki is 0.006 to 0.05 µM.

For the molecule `Cc1ccc(S(=O)(=O)NC(=O)N2C[C@@H]3C[C@H]2C(=O)N3C[C@H](N)C(=O)N2CCC[C@H]2C#N)cc1` [Example 74], the Ki is 0.051 to 0.5 µM.

As to `CC(C)(C)NC(=O)N1C[C@@H]2C[C@H]1C(=O)N2C[C@H](N)C(=O)N1CCC[C@H]1C#N` [Example 75], the Ki was 0.051 to 0.5 µM.

With `N#C[C@@H]1CCCN1C(=O)[C@@H](N)CN1C[C@@H]2C[C@H]1CN2C(=O)Cc1cccs1` [Example 76], the inhibition constant (Ki) was 0.006 to 0.05 µM.

Take `N#C[C@@H]1CCCN1C(=O)[C@@H](N)CN1C[C@@H]2C[C@H]1CN2S(=O)(=O)c1cccc(F)c1` [Example 77]: the Ki was below 0.006 µM.

On to `N#C[C@@H]1CCCN1C(=O)[C@@H](N)CN1C[C@@H]2C[C@H]1CN2c1cccc(F)c1` [Example 78], for which the Ki is 0.006 to 0.05 µM.
